Laboratory results reported in the NIST ThermoML archive (doi:10.1016/j.jct.2006.09.012).

Details: Liquid, Buoyancy - hydrostatic balance with magnetic suspension - two sinkers

CCOC(F)(C(F)(F)C(F)(F)C(F)(F)F)C(F)(C(F)(F)F)C(F)(F)F (stereo not drawn) [2-trifluoromethyl-3-ethoxydodecafluorohexane]
Details	mass density [kg/m3]
285 K, 1204.2 kPa	1650.59
285 K, 1204.8 kPa	1650.6
285 K, 1205.2 kPa	1650.59
285 K, 5212.8 kPa	1659.79
285 K, 5220.2 kPa	1659.81
285 K, 10181 kPa	1670.44
285 K, 10197 kPa	1670.47
308 K, 19845 kPa	1649.2
308.01 K, 1314.5 kPa	1604.24
308.01 K, 1320.9 kPa	1604.26
308.01 K, 1331 kPa	1604.29
308.01 K, 5215.7 kPa	1614.98
308.01 K, 5219.6 kPa	1614.99
308.01 K, 5223.4 kPa	1615
308.01 K, 10450 kPa	1628.17
308.01 K, 10468 kPa	1628.21
308.01 K, 10476 kPa	1628.24
308.01 K, 19786 kPa	1649.07
308.01 K, 19825 kPa	1649.16
350 K, 1285.8 kPa	1515.32
350 K, 1286 kPa	1515.32
350 K, 1286.3 kPa	1515.32
350 K, 1286.4 kPa	1515.32
350 K, 1286.7 kPa	1515.32
350 K, 1286.8 kPa	1515.32
350 K, 5286.1 kPa	1531.01
350 K, 5291 kPa	1531.03
350 K, 10388 kPa	1548.66
350 K, 10394 kPa	1548.69
350 K, 10401 kPa	1548.71
350 K, 16836 kPa	1568.2
350 K, 16850 kPa	1568.24
350 K, 17082 kPa	1568.89
350 K, 19716 kPa	1576.14
350 K, 19732 kPa	1576.18
350 K, 19786 kPa	1576.33
400 K, 1164.3 kPa	1398.22
400 K, 1164.4 kPa	1398.22
400 K, 1164.7 kPa	1398.23
400 K, 5225.5 kPa	1424.08
400 K, 5227.2 kPa	1424.09
400 K, 5228.8 kPa	1424.1
400 K, 9975.6 kPa	1448.91
400 K, 9979.7 kPa	1448.93
400 K, 9984.1 kPa	1448.95
400 K, 19197 kPa	1487.27
400 K, 19208 kPa	1487.3
400 K, 19218 kPa	1487.34
400 K, 19258 kPa	1487.49
400 K, 19276 kPa	1487.55
400 K, 19287 kPa	1487.59
400 K, 19317 kPa	1487.71
400 K, 19328 kPa	1487.74
400 K, 19347 kPa	1487.81
400 K, 19369 kPa	1487.89
400 K, 19380 kPa	1487.93
400 K, 19391 kPa	1487.97
400 K, 19416 kPa	1488.07
400 K, 19495 kPa	1488.35
400 K, 19519 kPa	1488.44
400 K, 19543 kPa	1488.53
400 K, 19560 kPa	1488.59
400 K, 19582 kPa	1488.67
